Source: PubChem BioAssay AID1996
Values after ≈ are worked out from the molar mass of the structure shown.

conditions: buffer; pH 7.4; 200.0 µM

Row | Compound | solubility kinetic [µg/mL]
1 | COc1cc(OC)cc(C(=O)NCCCCc2ccccc2)c1 | 1.3 (≈ 4.15 µM)
2 | O=C(c1ccc(NS(=O)(=O)c2ccccc2)cc1)N1CCOCC1 | > 52
3 | CN1CC(=O)Nc2ccc([N+](=O)[O-])cc2C1=O | > 35.3
4 | CCCN1CNC(=S)N(c2ccc(C)cc2C)C1 | > 39.5
5 | COc1ccc(Nc2ncnc3sccc23)cc1 | 36 (≈ 140 µM)
6 | O=C(CSc1nc(O)cc(=O)[nH]1)N1CCOCC1 | > 40.7
7 | N#CCC(=O)Nc1ccc(C(=O)OCC(=O)NC(=O)NCc2ccco2)cc1 | 17.4 (≈ 45.3 µM)
8 | COc1ccc(Nc2nc(N)c([N+](=O)[O-])c(N3CCOCC3)n2)cc1 | 21.2 (≈ 61.2 µM)
9 | CC(C(=O)OCC(=O)c1ccccc1)N1C(=O)c2ccccc2C1=O (stereo not drawn) | 40.4 (≈ 120 µM)
10 | O=C(NCC1CC1(Cl)Cl)Nc1ccc(Cl)c(Cl)c1 (stereo not drawn) | 9.1 (≈ 27.7 µM)
11 | CC(C)CCNc1nc2ccccc2nc1NS(=O)(=O)c1cccs1 | 7.3 (≈ 19.4 µM)
12 | NC(=S)c1cc2cc(Cl)ccc2oc1=O | 1.6 (≈ 6.68 µM)
13 | CC(NC(=O)c1cc(=O)[nH]c2ccccc12)c1ccc(F)cc1F (stereo not drawn) | 2.8 (≈ 8.53 µM)
14 | Cc1[nH]c(=O)c(C#N)c(C)c1CCC(=O)NCc1ccc(Cl)cc1 | > 51.6
15 | CS(=O)(=O)N(CC(=O)N1CCOCC1)c1cccc(F)c1 | 40.7 (≈ 129 µM)
16 | C=CCSc1nc2c(c(-c3ccsc3)c1C#N)CN(C)CC2 | 23 (≈ 70.2 µM)
17 | CC(C)(C)NC(=O)NC(=O)CN1CCc2ccccc21 | 27.5 (≈ 99.9 µM)
18 | COc1ccccc1N1CCN(Cc2cc3c(cc2O)OCO3)CC1 | > 51.4
19 | COc1ccc([N+](=O)[O-])cc1NC(=O)CCSCCc1ccccn1 | > 54.2
20 | O=C(O)C1CC(O)CN1C(=S)Nc1ccccc1 (stereo not drawn) | > 39.9
21 | CCC1C(C#N)=C(SCC(N)=O)NC2=C1C(=O)CC(C)(C)C2 (stereo not drawn) | 46.9 (≈ 147 µM)
22 | COc1ccc(CCNc2nc(C)cc(C)c2C#N)cc1OC | 32.7 (≈ 105 µM)
23 | CCS(=O)(=O)c1ccc(O)c(NC(=O)/C=C/c2ccc(Cl)cc2)c1 | 3.9 (≈ 10.7 µM)
24 | CC(=O)Nc1ccc(C(=O)COC(=O)c2cc(C)oc2C)c(F)c1 | 7.8 (≈ 23.4 µM)

Row | Compound | solubility kinetic [µg/mL]
25 | COc1ccccc1CC(=O)N(Cc1ccccc1)c1cccc(C)c1 | 8.9 (≈ 25.8 µM)
26 | NC(=NCCc1ccc(Cl)cc1)NS(=O)(=O)c1ccccc1 | 47.5 (≈ 141 µM)
27 | COc1ccc(Nc2nc(-c3ccccc3O)nc3ccccc23)cc1 | < 0.2
28 | COc1cc(CC(=O)O)c([N+](=O)[O-])cc1OC | > 36.2
29 | O=c1c(Cc2ccccc2)c(O)ccn1Cc1ccc2c(c1)OCO2 | 2.7 (≈ 8.05 µM)
30 | O=C(NCCN1CCCCC1)c1ccc(/C=N/O)nc1 | 40.7 (≈ 147 µM)
31 | COc1ccccc1N1CCN(C2CCC(C)CC2)CC1 (stereo not drawn) | 31.7 (≈ 110 µM)
32 | O=C(O)C1C2C=CC(O2)C1C(=O)NCCc1cccc(Cl)c1 (stereo not drawn) | > 48.3
33 | COC(CN(C)C(C(=O)NC1CCCCC1)c1ccccc1)OC (stereo not drawn) | > 50.2
34 | CCN(CC)c1ccc(S(=O)(=O)N2CCOCC2)cc1NC(=O)Nc1ccccc1 | 2.2 (≈ 5.09 µM)
35 | O=C(COC(=O)c1ccc(O)cc1O)NC1CCCCCC1 | > 46.1
36 | NS(=O)(=O)c1ccc(CNC(=O)c2cccnc2Cl)cc1 | 38.3 (≈ 118 µM)
37 | Cc1nc(NC(=O)c2ccc(Br)o2)ccc1Br | < 0.4
38 | CC(C)C(NC(=O)C(C)N1C(=O)c2ccccc2C1=O)c1ccccc1 (stereo not drawn) | > 52.6
39 | CSc1ncccc1C(=O)NCCc1ccccc1F | > 43.6
40 | O=C(COC(=O)c1cccs1)NCc1cccs1 | 40 (≈ 142 µM)
41 | CC(CN1CCOCC1)OC(=O)c1cccc(Cl)c1.Cl (stereo not drawn) | 43.2
42 | Cc1ccc(NC(=O)NCc2ccccn2)cc1Cl | > 41.4
43 | CCN(Cc1ccccc1)C(=O)CC(=O)N(CC)Cc1ccccc1 | > 50.8
44 | COC(=O)CCC(=O)NC(=S)Nc1ccccc1F | 36.8 (≈ 129 µM)
45 | Cc1ccc(C)c(SCC(=O)Nc2cccc(S(=O)(=O)N3CCOCC3)c2)c1 | 21.4 (≈ 50.9 µM)
46 | CSc1ccc(C2NC(=O)c3ccccc3N2)cc1 (stereo not drawn) | 2.6 (≈ 9.62 µM)
47 | O=C(CSc1nc2ccccc2s1)NCC1CCCO1 (stereo not drawn) | > 46.3
48 | Cc1ccc(NC(=O)COC(=O)Cc2ccc(Br)cc2)cc1S(=O)(=O)N1CCOCC1 | 12.4 (≈ 24.2 µM)

Row | Compound | solubility kinetic [µg/mL]
49 | Cc1onc(-c2ccccc2Cl)c1C(=O)NCc1ccc(F)cc1 | 45.3 (≈ 131 µM)
50 | Cc1cc[n+](CC(=O)Nc2ccccc2)cc1.[Br-] | 45.4
51 | COc1ccc(F)cc1S(=O)(=O)N1CCN(c2ccccn2)CC1 | 6.1 (≈ 17.4 µM)
52 | C=CCn1c(C)cc(C(=O)COC(=O)CCc2cc(OC)c(OC)c(OC)c2)c1C | 31.8 (≈ 76.5 µM)
53 | CN1C2CCC1CC(NC(=O)c1cccc(C(F)(F)F)c1)C2 (stereo not drawn) | > 46.9
54 | CCOc1ccccc1C(=O)NCC(=O)OCCOc1cccc(Cl)c1 | 34 (≈ 90 µM)
55 | Cc1cccc(NC(=O)CNC(=O)COC(=O)C2CC2C)c1C (stereo not drawn) | > 47.8
56 | CC(=O)Nc1ccc(S(=O)(=O)N(CC(=O)NC2CC2)Cc2ccccc2)cc1 | > 60.2
57 | O=C(CN1CCCCCC1)Nc1ccc(Cl)cc1F | 28.1 (≈ 98.7 µM)
58 | CCN1CCCC1CNC(=O)CCc1nnc(CCC2CCCCC2)o1 (stereo not drawn) | > 54.4
59 | CCOC(=O)C1CCN(C(=O)Nc2ccc(OC(F)(F)F)cc2)CC1 | 16.1 (≈ 44.7 µM)
60 | CS(=O)(=O)c1cccc(S(=O)(=O)N2CCCCCC2)c1 | > 47.6
61 | O=C(OCc1ccc([N+](=O)[O-])cc1Cl)c1cnccn1 | > 44.1
62 | Cc1ccc(OCC(=O)Nc2cccnc2Cl)cc1C | 0.8 (≈ 2.75 µM)
63 | CN(Cc1ccc(F)cc1)C(=O)CCc1nnc(-c2ccccc2)o1 | > 50.9
64 | Cn1c(SCC(=O)O)nc2sc3c(c2c1=O)CCC3 | > 44.5
65 | Cc1ccc(N2C(=O)C3ON(c4ccccc4)C(CC(C)C)C3C2=O)cc1 (stereo not drawn) | 11.6 (≈ 31.8 µM)
66 | O=C(Nc1ccc2ncccc2c1)c1ccccc1 | 30.7 (≈ 124 µM)
67 | O=C1CCc2cc(S(=O)(=O)Nc3ccccc3F)ccc2N1 | > 48.1
68 | O=C(CNS(=O)(=O)c1ccc(Cl)cc1)N1CCN(c2ccc(F)cc2)CC1 | 8.3 (≈ 20.2 µM)
69 | CC(OC(=O)c1ccc2ccccc2n1)C(=O)c1ccccc1 (stereo not drawn) | > 45.8
70 | Cl.Nc1nc2cc3ccccc3cc2[nH]c1=O | 5.2
71 | O=[N+]([O-])c1ccc(-c2nc(NCC3CCCO3)c3ccccc3n2)cc1 (stereo not drawn) | 0.6 (≈ 1.71 µM)
72 | O=C(COC(=O)c1cccnc1Cl)c1ccc(Cl)s1 | > 47.4

Row | Compound | solubility kinetic [µg/mL]
73 | CC(=O)Nc1ccc(NC(=O)CSCc2ccccc2Cl)cc1 | 12.7 (≈ 36.4 µM)
74 | CS(=O)(=O)c1ccc(C(=O)Nc2ccccc2Cl)cc1 | > 46.5
75 | CC(=O)N(CCC1(C(C)C)CCOC(C)(C)C1)C(C)c1cccs1 (stereo not drawn) | 51.1 (≈ 145 µM)
76 | CC1CCCCC1NC(=O)CCCN1C(=O)c2ccccc2C1=O (stereo not drawn) | 15.9 (≈ 48.4 µM)
77 | CCC(=O)c1cn(CC(=O)Nc2ccc(OC)cc2)c2ccccc12 | < 0.4
78 | O=C(OCC(=O)N1CCN(C(=O)c2ccco2)CC1)c1cc(F)c(F)cc1Cl | > 61.9
79 | C=C1N(C)c2cc([N+](=O)[O-])c(N)cc2C1(C)C | > 35
80 | O=c1[nH]c(=O)n(-c2ccc(F)cc2)c(O)c1/C=C1\C=Nc2ccccc21 | 1.9 (≈ 5.44 µM)
81 | CNCc1c(OCc2ccc(F)cc2)ccc2ccccc12.Cl | > 49.8
82 | CCCn1c(=O)c2[nH]cnc2n(-c2ccccc2C)c1=O | > 42.6
83 | COC(=O)C(Cc1c[nH]c2ccccc12)NC(=O)c1cccs1 (stereo not drawn) | > 49.3
84 | CC(NC(=O)c1ccccc1Br)C1CC2CCC1C2 (stereo not drawn) | 20.6 (≈ 63.9 µM)
85 | CC(=O)NNC(=O)c1[nH]c2ccc(Br)cc2c1-c1ccccc1 | > 55.8
86 | COc1ccc(Br)cc1C(=O)Nc1ccccc1N1CCCC1 | < 0.4
87 | CC(C)CC(=O)N1CCN(Cc2ccc(Cl)cc2)CC1 | 28.4 (≈ 96.3 µM)
88 | Cn1c(-c2ccc(Cl)nc2)nc2ccccc21 | > 36.6
89 | CCCCNc1ccc(C(=O)OCCN(C)C)cc1.Cl | > 45.1
90 | CCOc1ccc(NC(=O)CCc2ccc(C)o2)cc1 | 10.5 (≈ 38.4 µM)
91 | CN(n1cnc2ccccc2c1=O)S(C)(=O)=O | > 38
92 | CSc1ncc(Cl)c(C(=O)Nc2ccc(C)c(C)c2)n1 | 0.7 (≈ 2.27 µM)
93 | CC1CN(S(=O)(=O)c2ccc(C(=O)NC3CCCCC3)cc2)CC(C)O1 (stereo not drawn) | 45.8 (≈ 120 µM)
94 | O=C(Nc1ccccn1)Nc1ccccc1Cl | 0.3 (≈ 1.21 µM)
95 | COc1ccc(C2=NOC(C(=O)Nc3cc(C)on3)C2)cc1OC (stereo not drawn) | > 49.7
96 | COc1ccccc1CNC(=O)C(Cc1ccccc1)NC(=O)c1ccccc1 (stereo not drawn) | 12.8 (≈ 33 µM)

Row | Compound | solubility kinetic [µg/mL]
97 | CSc1nc2ccc(NC(=O)COc3ccccc3F)cc2s1 | 2.2 (≈ 6.31 µM)
98 | O=C(COC(=O)c1ccc(Cl)nc1)NCCc1ccccc1 | 45.5 (≈ 143 µM)
99 | O=C(Cn1c(=O)cnc2ccccc21)NC1CCC(O)CC1 (stereo not drawn) | > 45.2
100 | CCOc1ccc(S(=O)(=O)Nc2ccc(C(=O)N3CCCC3)cc2)cc1 | 53.3 (≈ 142 µM)
101 | Nc1ccc(-c2nc(-c3ccccc3)nc3ccccc23)cc1 | 0.5 (≈ 1.68 µM)
102 | O=C(COC(=O)c1cc(=O)[nH]c2ccccc12)Nc1ccccc1F | 19.7 (≈ 57.9 µM)
103 | CSc1ccc(CN2CCN(CC=C(C)C)C(CCO)C2)cc1 (stereo not drawn) | > 50.2
104 | Cc1nnc(Nc2ccc(C(=O)O)cc2)[nH]c1=O | > 36.9
105 | Cc1csc(NC(=O)CSC2=NCCS2)n1 | 40.5 (≈ 148 µM)
106 | COC(=O)c1c(NC(C)=O)sc(C(=O)N2CCOCC2)c1C | > 49
107 | Cc1cccc(NC(=O)C(=O)C2C(=O)Nc3ccccc32)c1 (stereo not drawn) | > 44.1
108 | Cc1oc2c(CN3CCCC(C)C3)c(O)ccc2c(=O)c1-c1ccccc1 (stereo not drawn) | > 54.5
109 | O=[N+]([O-])c1ccc(CNc2cccc(Cl)c2)s1 | 6.3 (≈ 23.4 µM)
110 | Cc1cc(C)cc(OCC(=O)Nc2nc(-c3cccnc3)cs2)c1 | 3.2 (≈ 9.43 µM)
111 | O=C(Nc1ccc2c(c1)OCO2)Nc1ccccc1F | 2.7 (≈ 9.84 µM)
112 | O=C(CNC(=O)c1ccccc1)Oc1cccc(Cl)c1 | > 43.5
113 | O=C(NCCCN1CCOCC1)c1ccc(Cl)cc1[N+](=O)[O-] | 49.1 (≈ 150 µM)
114 | COc1cc(C(=O)Nc2ccc(C)cn2)c([N+](=O)[O-])cc1OC | > 47.6
115 | Cn1c(N)c(C(=O)COC(=O)/C=C/c2ccccc2)c(=O)n(C)c1=O | 11.6 (≈ 33.8 µM)
116 | O=C1CCCN1CCCNS(=O)(=O)c1ccc(F)cc1F | > 47.8
117 | O=C(Nc1ccc(F)cc1)c1cccnc1Oc1ccccc1 | 4.3 (≈ 13.9 µM)
118 | CCOC(=O)C1=C(C)Nc2ccccc2S1 | 17.9 (≈ 76.1 µM)
